Measured values: article PMC12917756, “Unveiling BCL-xL-specific PROTAC efficiency and dissociation pathways using native mass spectrometry” (Chemical Science, 2026)

Target: T1, VHL (VCB E3 ligase complex) (Homo sapiens, UniProt P40337)
T1 construct: VCB complex (VHL·EloB·EloC); with Elongin B, Elongin C
Test: fluorescence polarization; ternary complex with BCL-xL by native MS
Type: binding

T1 sequence (P40337 whole entry): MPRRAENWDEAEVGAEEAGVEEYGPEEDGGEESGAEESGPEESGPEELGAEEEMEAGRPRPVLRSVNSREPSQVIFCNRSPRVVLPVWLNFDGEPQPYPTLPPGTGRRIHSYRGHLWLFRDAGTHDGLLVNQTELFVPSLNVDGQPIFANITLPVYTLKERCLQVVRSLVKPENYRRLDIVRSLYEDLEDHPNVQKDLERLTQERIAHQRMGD
T1 sequence (Q15370 whole entry partner): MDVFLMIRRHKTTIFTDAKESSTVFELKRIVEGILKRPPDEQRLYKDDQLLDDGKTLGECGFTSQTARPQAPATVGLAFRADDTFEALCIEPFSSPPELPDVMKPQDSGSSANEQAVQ
T1 sequence (Q15369 whole entry partner): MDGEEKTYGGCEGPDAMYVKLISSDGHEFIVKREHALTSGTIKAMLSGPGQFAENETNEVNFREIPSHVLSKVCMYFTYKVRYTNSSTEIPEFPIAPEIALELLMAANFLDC

Cc1ncsc1-c1ccc([C@H](C)NC(=O)[C@@H]2C[C@@H](O)CN2C(=O)[C@@H](NC(=O)CCCCCC(=O)N2CCN(CC[C@H](CSc3ccccc3)Nc3ccc(S(=O)(=O)NC(=O)c4ccc(N5CCN(CC6=C(c7ccc(Cl)cc7)CCC(C)(C)C6)CC5)cc4)cc3S(=O)(=O)C(F)(F)F)CC2)C(C)(C)C)cc1 [DT2216]
IC50: 10.6 µM
